Target: T1, human cannabinoid CB2 receptor (Homo sapiens, UniProt P34972)
T1 construct: expressed in transfected cells; host or cells: Saccharomyces cerevisiae strain MMY23
Experiment: Cannabinoid CB2 receptor agonist activity, yeast reporter assay (FDGlu fluorescence);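 for Emax: 100% equals maximal response of reference agonist HU210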
Type: cell-based
Conditions: for Emax: read-out: efficacy value (Emax) at the cloned human cannabinoid CB2 receptor
Method: The cannabinoid CB2 receptor agonist activity of the compounds of formula (I) was determined in accordance with the following experimental method.
Yeast (Saccharomyces cerevisiae) cells expressing the human cannabinoid CB2 receptor were generated by integration of an expression cassette into the ura3 chromosomal locus of yeast strain MMY23. This cassette consisted of DNA sequence encoding the human CB2 receptor flanked by the yeast GPD promoter to the 5′ end of CB2 and a yeast transcriptional terminator sequence to the 3′ end of CB2. MMY23 expresses a yeast/mammalian chimeric G-protein alpha subunit in which the C-terminal 5 amino acids of Gpa1 are replaced with the C-terminal 5 amino acids of human Gαi3 (as described in Brown et al. (2000), Yeast 16:11-22). Cells were grown at 30° C. in liquid Synthetic Complete (SC) yeast media (Guthrie and Fink (1991), Methods in Enzymology, Vol. 194) lacking uracil, tryptophan, adenine and leucine to late logarithmic phase (approximately 6 OD600/ml).
Agonists were prepared as 10 mM stocks in DMSO. […] Agonist solutions in DMSO (1% final assay volume) were transferred into black, clear bottom, microtitre plates from NUNC (96- or 384-well). […] This mixture (50 ul per well for 384-well plates, 200 ul per well for 96-well plates) was added to agonist in the assay plates (Multidrop 384, Labsystems). After incubation at 30° C. for 24 hours, fluorescence resulting from degradation of FDGlu to fluorescein due to exoglucanase, an endogenous yeast enzyme produced during agonist-stimulated cell growth, was determined using a Spectrofluor microtitre plate reader (Tecan; excitation wavelength: 485 nm; emission wavelength: 535 nm). Fluorescence was plotted against compound concentration and iteratively curve fitted using a four parameter fit to generate a concentration effect value.
where Max[compound X] and Min[compound X] are the fitted maximum and minimum respectively from the concentration effect curve for compound X, and Max[HU210] and Min[HU210] are the fitted maximum and minimum respectively from the concentration effect curve for (6aR,10aR)-3-(1,1′-Dimethylheptyl)-6a,7,10,10a-tetrahydro-1-hydroxy-6,6-dimethyl-6H-dibenzo[b,d]pyran-9-methanol (HU210; available from Tocris). Equieffective molar ratio (EMR) values were calculated from the equation EMR=EC50 [compound X]/EC50 [HU210]
Where EC50 [compound X] is the EC50 of compound X and EC50 [HU210] is the EC50 of HU210.

T1 sequence (P34972 whole entry): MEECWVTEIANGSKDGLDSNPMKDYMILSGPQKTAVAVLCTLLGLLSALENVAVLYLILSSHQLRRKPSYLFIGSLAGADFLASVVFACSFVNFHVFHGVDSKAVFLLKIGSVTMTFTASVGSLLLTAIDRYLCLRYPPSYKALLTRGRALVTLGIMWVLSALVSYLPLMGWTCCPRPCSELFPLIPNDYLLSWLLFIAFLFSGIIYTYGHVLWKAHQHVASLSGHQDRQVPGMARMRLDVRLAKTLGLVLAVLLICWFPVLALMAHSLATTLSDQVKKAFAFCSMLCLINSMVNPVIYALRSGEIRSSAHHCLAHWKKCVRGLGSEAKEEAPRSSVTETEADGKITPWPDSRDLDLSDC

| Compound | Emax [%] | EC50 [nM] |
| --- | --- | --- |
| O=C(NCC1CCCCC1)c1cnc(Nc2cccc(Cl)c2)cc1C(F)(F)F [Example 1, 2-(3-Chlorophenylamino)-4-trifluoromethylpyridine-5-carboxylic acid cyclohexylmethyl amide] | > 50 | – |
| CC(C)c1cc(Nc2cccc(Cl)c2)ncc1C(=O)NCC1CCCCC1 [Example 2, 6-(3-Chlorophenylamino)-N-cyclohexylmethyl-4-isopropylnicotinamide] | > 50 | < 300 |
| CC(C)c1cc(Nc2ccc(Cl)c(Cl)c2)ncc1C(=O)NCC1CCCCC1 [Example 3, N-Cyclohexylmethyl-6-(3,4-dichloro-phenylamino)-4-isopropyl-nicotinamide] | > 50 | < 300 |
| CC(C)c1cc(Nc2ccc(Cl)cc2Cl)ncc1C(=O)NCC1CCCCC1 [Example 5, N-Cyclohexylmethyl-6-(2,4-dichloro-phenylamino)-4-isopropyl-nicotinamide] | > 50 | < 300 |
| CC(C)c1cc(Nc2cccc(Cl)c2)ncc1C(=O)NCC1CCC1 [Example 6, 6-(3-Chloro-phenylamino)-N-cyclobutylmethyl-4-isopropyl-nicotinamide] | > 50 | < 300 |
| CC(C)c1cc(Nc2cccc(Cl)c2)ncc1C(=O)NCC1CCOCC1 [Example 7, 6-(3-Chloro-phenyl-amino)-4-isopropyl-N-(tetrahydro-pyran-4-ylmethyl)-nicotinamide] | > 50 | – |
| CC(C)c1cc(Nc2cccc(Br)c2)ncc1C(=O)NCC1CCOCC1 [Example 8, 6-(3-Bromo-phenyl-amino)-4-isopropyl-N-(tetrahydro-pyran-4-ylmethyl)-nicotinamide] | > 50 | – |
| COc1cccc(Nc2cc(C(C)C)c(C(=O)NCC3CCCCC3)cn2)c1 [Example 9, N-Cyclohexylmethyl-4-isopropyl-6-(3-methoxy-phenylamino)-nicotinamide] | > 50 | < 300 |
| CC(C)c1cc(Nc2cccc(F)c2)ncc1C(=O)NCC1CCCCC1 [Example 10, N-Cyclohexylmethyl-6-(3-fluoro-phenylamino)-4-isopropyl-nicotinamide] | > 50 | < 300 |
| CC(C)c1cc(Nc2cccc(Cl)c2)ncc1C(=O)N1CCOCC1 [Example 11, 1-[6-(3-Chloro-phenylamino)-4-isopropyl-pyridin-3-yl]-1-morpholin-4-yl-methanone] | > 50 | < 300 |
| CC(C)c1cc(Nc2cccc(Br)c2)ncc1C(=O)NCC1CCCCC1 [Example 12, 6-(3-Bromo-cyclohexylmethyl-4-phenylamino)-N-isopropyl-nicotinamide] | > 50 | < 300 |
| Cc1cccc(Nc2cc(C(C)C)c(C(=O)NCC3CCCCC3)cn2)c1 [Example 13, N-Cyclohexylmethyl-4-isopropyl-6-m-tolytamino-nicotinamide] | > 50 | < 300 |
| CC(C)c1cc(Nc2cccc(C(F)(F)F)c2)ncc1C(=O)NCC1CCCCC1 [Example 14, N-Cyclohexylmethyl-4-isopropyl-6-(3-trifluoromethyl-phenylamino)-nicotinamide] | > 50 | < 300 |
| CC(C)c1cc(Nc2cccc(OC(F)(F)F)c2)ncc1C(=O)NCC1CCCCC1 [Example 15, N-Cyclohexylmethyl-4-isopropyl-6-(3-trifluoromethoxy-phenylamino)-nicotinamide] | > 50 | < 300 |
| CC(C)c1cc(Nc2cccc(Cl)c2Cl)ncc1C(=O)NCC1CCOCC1 [Example 16, 6-(2,3-Dichloro-phenylamino)-4-isopropyl-N-(tetrahydro-pyran-4-ylmethyl)-nicotinamide] | > 50 | < 300 |
| CC(C)c1cc(Nc2ccc(Cl)cc2Cl)ncc1C(=O)NCC1CCOCC1 [Example 17, 6-(2,4-Dichloro-phenylamino)-4-isopropyl-N-(tetrahydro-pyran-4-ylmethyl)-nicotinamide] | > 50 | – |
| CC(C)c1cc(Nc2ccc(Cl)c(Cl)c2)ncc1C(=O)NCC1CCOCC1 [Example 18, 6-(3,4-Dichloro-phenylamino)-4-isopropyl-N-(tetrahydro-pyran-4-ylmethyl)-nicotinamide] | > 50 | < 300 |
| CC(C)c1cc(Nc2cccc(C(F)(F)F)c2)ncc1C(=O)NCC1CCOCC1 [Example 19, 4-Isopropyl-N-(tetrahydro-pyran-4-ylmethyl)-6-(3-trifluoromethyl-phenylamino) nicotinamide] | > 50 | < 300 |

| Compound | Emax [%] | EC50 [nM] |
| --- | --- | --- |
| CC(C)c1cc(Nc2cccc(OC(F)(F)F)c2)ncc1C(=O)NCC1CCOCC1 [Example 20, 4-Isopropyl-N-(tetrahydro-pyran-4-ylmethyl)-6-(3-trifluoromethoxy-phenylamino) nicotinamide] | > 50 | < 300 |
| CC(C)c1cc(Nc2cccc(Cl)c2)ncc1C(=O)NCC1CCCC1 [Example 21, 6-[(3-Chloro-phenyl)amino]-N-(cyclopentylmethyl)-4-isopropyl-nicotinamide] | > 50 | – |
| CC(C)c1cc(Nc2cccc(F)c2)ncc1C(=O)NCC1CCCC1 [Example 22, N-Cyclopentylmethyl-6-(3-fluorophenylamino)-4-isopropyl-nicotinamide] | > 50 | < 300 |
| CC(C)c1cc(Nc2cccc(C(F)(F)F)c2)ncc1C(=O)NCC1CCCC1 [Example 23, N-Cyclopentylmethyl-4-isopropyl-6-(3-trifluoromethyl-phenylamino)-nicotinamide] | > 50 | < 300 |
| Cc1cccc(Nc2cc(C(C)C)c(C(=O)NCC3CCCC3)cn2)c1 [Example 24, N-Cyclopentylmethyl-4-isopropyl-6-m-tolylamino-nicotinamide] | > 50 | < 300 |
| CC(C)c1cc(Nc2cccc(OC(F)(F)F)c2)ncc1C(=O)NCC1CCCC1 [Example 25, N-Cyclopentylmethyl-4-isopropyl-6-(3-trifluoromethoxy-phenylamino)-nicotinamide] | > 50 | < 300 |
| CC(C)c1cc(Nc2cccc(Br)c2)ncc1C(=O)NCC1CCCC1 [Example 26, 6-(3-Bromophenylamino)-N-cyclopentylmethyl-4-isopropyl-nicotinamide] | > 50 | < 300 |
| COc1cccc(Nc2cc(C(C)C)c(C(=O)NCC3CCCC3)cn2)c1 [Example 27, N-Cyctopentylmethyl-4-isopropyl-6-(3-methoxyphenylamino) nicotinamide] | > 50 | < 300 |
| CC(C)c1cc(Nc2cccc(C#N)c2)ncc1C(=O)NCC1CCCC1 [Example 28, 6-(3-Cyano-phenylamino)-N-cyclopentylmethyl-4-isopropyl-nicotinamide] | > 50 | < 300 |
| CC(C)c1cc(Nc2ccc(F)cc2Cl)ncc1C(=O)NCC1CCCC1 [Example 29, 6-(2-Chloro-4-fluoro-phenylamino)-N-cyclopentylmethyl-4-isopropyl-nicotinamide] | > 50 | < 300 |
| CC(C)c1cc(Nc2ccc(C#N)cc2Cl)ncc1C(=O)NCC1CCCC1 [Example 30, 6-(2-Chloro-4-cyano-phenylamino)-N-cyclopentylmethyl-4-isopropyl-nicotinamide] | > 50 | < 300 |
| CC(C)c1cc(Nc2ccc(Cl)cc2Cl)ncc1C(=O)NCC1CCCC1 [Example 31] | > 50 | < 300 |
| CC(C)c1cc(Nc2ccc(Cl)c(Cl)c2)ncc1C(=O)NCC1CCCC1 [Example 32] | > 50 | < 300 |
| CC(C)c1cc(Nc2cccc(Br)c2)ncc1C(=O)NCC1CCC1 [Example 33, 6-(3-Bromo-phenylamino)-N-cyclobutylmethyl-4-isopropyl-nicotinamide] | > 50 | < 300 |
| CC(C)c1cc(Nc2cccc(F)c2)ncc1C(=O)NCC1CCC1 [Example 34, N-Cyclobutylmethyl-6-(3-fluoro-phenylamino)-4-isopropyl-nicotinamide] | > 50 | < 300 |
| CC(C)c1cc(Nc2cccc(C(F)(F)F)c2)ncc1C(=O)NCC1CCC1 [Example 35, N-Cyclobutylmethyl-6-(3-trifluoromethyl-phenylamino)-4-] | > 50 | < 300 |
| CC(C)c1cc(Nc2cccc(C#N)c2)ncc1C(=O)NCC1CCC1 [Example 36, 6-(3-Cyano-phenylamino)-N-cyclobutylmethyl-4-isopropyl-nicotinamide] | > 50 | < 300 |
| Cc1cccc(Nc2cc(C(C)C)c(C(=O)NCC3CCC3)cn2)c1 [Example 37, N-Cyclobutylmethyl-4-isopropyl-6-m-tolylamino-nicotinamide] | > 50 | – |

Reference: US20060240048A1 (priority 2002, published 2006)
